Data: paper PMC12775434, “Ultra-large virtual screening unveils potent agonists of the neuromodulatory orphan receptor GPR139” (Nature Communications, 2025)
Where “and” joins values, the source holds several entries; their conditions need not be identical. Equal values may be shown once.

Experiments:
GPR139 (Gi2 activation) = target: T1, GPR139 (Gi2 activation) (Homo sapiens, UniProt Q6DWJ6); test: BRET G protein activation (dissociation) assay, Gi2, HEK293A; assay type: cell-based; conditions: for G protein activation, Gi2: individual replicates
T1 construct: expressed in transfected cells; host or cells: HEK293A (transient, Lipofectamine 2000)
T1 sequence (Q6DWJ6 1-353): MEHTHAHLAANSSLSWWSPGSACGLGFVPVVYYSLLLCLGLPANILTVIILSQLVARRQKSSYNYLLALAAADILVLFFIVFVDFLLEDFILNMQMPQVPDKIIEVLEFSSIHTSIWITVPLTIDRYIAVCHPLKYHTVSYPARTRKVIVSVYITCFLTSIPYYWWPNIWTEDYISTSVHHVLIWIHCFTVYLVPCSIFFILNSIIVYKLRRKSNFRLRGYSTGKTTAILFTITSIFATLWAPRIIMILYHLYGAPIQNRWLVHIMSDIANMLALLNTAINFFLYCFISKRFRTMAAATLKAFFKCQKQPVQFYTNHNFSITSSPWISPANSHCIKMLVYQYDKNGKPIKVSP
Method: (§1) Primary screening and pharmacological characterization of compounds were performed using a CHO-K1 cell line that stably expresses human GPR139 (GPR139-CHOk1). The GPR139-CHOk1 cell line was kindly provided by H. Lundbeck A/S, Denmark[24]. GPR139-CHOk1 cells were grown in Ham’s F-12 Kaighn’s Modification Medium (ThermoFisher #21127030) supplemented with 10% dialyzed fetal bovine serum (US origin, ThermoFisher #26400044), 100 units/mL Penicillin-Streptomycin (ThermoFisher #15140122), and 1 mg/mL Geneticin (ThermoFisher #11811031). […] M1R-CHOk1 cells were purchased from The Missouri S&T cDNA Resource Center (#CEM100TN00). M1R-CHOk1 cells were grown in Ham’s F12 Medium (ThermoFisher #21765029) supplemented with 10% fetal bovine serum (Brazilian origin, ThermoFisher #10270106), 100 units/mL Penicillin-Streptomycin, and 0.25 mg/mL Geneticin. HEK293A cells transiently transfected with GPR139 were used for additional pharmacological assessment of signaling pathways activated by GPR139. HEK239A cells were generously provided by Dr. Asuka Inoue, Tohoku University, Japan. HEK293A cells were grown in Dulbecco’s Modified Eagle Medium (ThermoFisher #31966047) supplemented with 10% dialyzed fetal bovine serum and 100 units/mL Penicillin-Streptomycin. Cell lines were maintained at 37 °C in humidified incubator equilibrated with 5% CO2.
(§2) The G protein dissociation assay developed by the lab of Kirill A. Martemyanov was used to measure the coupling of multiple G proteins by GPR139[57]. The assay was performed as described previously with minor modifications. HEK293A cells were reverse transfected 20–24 h prior to assay. 50,000 cells were plated in each well of white opaque tissue culture treated 96-well plates (PerkinElmer #6005680) previously coated with poly-D-lysine. Transfection solutions were prepared as described, and 10 µL transfection solution was mixed with 100 µL cells in each well. The cells in each well were transfected with 18.9 ng GPR139, 6.3 ng Venus 1-155 Gγ2, 6.3 ng Venus 159-239 Gβ1, 6.3 ng masGRK3ct-NanoLuc and 12.6 ng Gαi2, 12.6 ng Gαi3, 12.6 ng GαoA, 12.6 ng Gαq or 25.2 ng Gα12 using 375 nL Lipofectamine 2000 Transfection Reagent. Transfections with Gαq and Gα12 contained 6.3 ng DNA of the active subunit S1 of pertussis toxin (PTX-S1). Each transfection was normalized to 150 ng total DNA with pcDNA3.1. The BRET biosensors were a kind gift from the Martemyanov lab. On the day of the experiment the cells were washed with HEPES buffer. Test compounds were diluted in HEPES buffer from DMSO stocks (final DMSO concentration of maximally 0.3%). NanoLuc Luciferase substrate NanoGlo—furimazine (Promega #N1120) was diluted 1000-fold (final) in HEPES buffer. NanoGlo and test compounds were added, and measurements were performed after 10 s for Gi3, 15 s for Gi2 and GoA, 20 s for Gq, and 90 s for G12—the timepoint where maximal signal occurred with each G protein, ensuring proper determination of the potency for the G protein coupling. Simultaneous dual emission was measured at 535 nm and 475 nm on LUMIstar Omega Microplate Reader (BMG Labtech) at room temperature. The BRET ratio of 535 nm/475 nm (Venus/NanoLuc), reflecting the dissociation of the G protein heterotrimer, was used to determine the G protein activation. The basal BRET ratio obtained with buffer condition was subtracted from the absolute BRET ratio at a given test compound concentration, and the responses were normalized to the one obtained with 10 µM JNJ-63533054 for the activation of Gi2.
(§3) Pharmacological data and statistical analyses were performed in GraphPad Prism v9–10 (Graphpad Software Inc., San Diego, CA), which are also specifically described in the figure and table legends. […]

GPR139 (G12 activation) = target: T2, GPR139 (G12 activation) (Homo sapiens, UniProt Q6DWJ6); test: BRET G protein activation (dissociation) assay, G12, HEK293A; assay type: cell-based; conditions: for G protein activation, G12: individual replicates
T2 construct: expressed in transfected cells; host or cells: HEK293A (transient, Lipofectamine 2000)
T2 sequence (Q6DWJ6 1-353): T1 sequence (Q6DWJ6 1-353)
Method: as §1, §2, §3

[1] = HEK293-A, normalized to JNJ-63533054 (JNJ(S))

- Emax (GPR139 (Gi2 activation); [1]): 88 ± 11%
- EC50 (GPR139 (Gi2 activation); Supplementary Table 6, read-out: pEC50 Gi2 (converted)): 794 nM
- Emax (GPR139 (G12 activation); [1]): 51 ± 4%
- EC50 (GPR139 (G12 activation); Supplementary Table 6, read-out: pEC50 G12 (converted)): 794 nM
Compound: Cc1cscc1-c1nc(CC(=O)N[C@H](C)c2ccccc2)no1 [1.1(R)]
- G protein activation, Gi2 (GPR139 (Gi2 activation); log [compound] M -4.5): 74 % of JNJ-63533054 at Gi2 and 72 % of JNJ-63533054 at Gi2 and 95 % of JNJ-63533054 at Gi2
- G protein activation, Gi2 (GPR139 (Gi2 activation); log [compound] M -5.0): 74 % of JNJ-63533054 at Gi2 and 67 % of JNJ-63533054 at Gi2 and 91 % of JNJ-63533054 at Gi2
- G protein activation, Gi2 (GPR139 (Gi2 activation); log [compound] M -5.5): 63 % of JNJ-63533054 at Gi2 and 47 % of JNJ-63533054 at Gi2 and 77 % of JNJ-63533054 at Gi2
- G protein activation, Gi2 (GPR139 (Gi2 activation); log [compound] M -6.0): 51 % of JNJ-63533054 at Gi2 and 35 % of JNJ-63533054 at Gi2 and 64 % of JNJ-63533054 at Gi2
- G protein activation, Gi2 (GPR139 (Gi2 activation); log [compound] M -6.5): 30 % of JNJ-63533054 at Gi2 and 18 % of JNJ-63533054 at Gi2 and 40 % of JNJ-63533054 at Gi2
- G protein activation, Gi2 (GPR139 (Gi2 activation); log [compound] M -7.0): 9 % of JNJ-63533054 at Gi2 and 1.06 % of JNJ-63533054 at Gi2 and 24 % of JNJ-63533054 at Gi2
- G protein activation, Gi2 (GPR139 (Gi2 activation); log [compound] M -7.5): 6 % of JNJ-63533054 at Gi2 and -1.09 % of JNJ-63533054 at Gi2 and 22 % of JNJ-63533054 at Gi2
- G protein activation, Gi2 (GPR139 (Gi2 activation); log [compound] M -8.0): -2.65 % of JNJ-63533054 at Gi2 and -5 % of JNJ-63533054 at Gi2 and 18 % of JNJ-63533054 at Gi2
- G protein activation, G12 (GPR139 (G12 activation); log [compound] M -4.5): 43 % of JNJ-63533054 at Gi2 and 44 % of JNJ-63533054 at Gi2 and 51 % of JNJ-63533054 at Gi2
- G protein activation, G12 (GPR139 (G12 activation); log [compound] M -5.0): 42 % of JNJ-63533054 at Gi2 and 36 % of JNJ-63533054 at Gi2 and 51 % of JNJ-63533054 at Gi2
- G protein activation, G12 (GPR139 (G12 activation); log [compound] M -5.5): 35 % of JNJ-63533054 at Gi2 and 29 % of JNJ-63533054 at Gi2 and 39 % of JNJ-63533054 at Gi2
- G protein activation, G12 (GPR139 (G12 activation); log [compound] M -6.0): 31 % of JNJ-63533054 at Gi2 and 23 % of JNJ-63533054 at Gi2 and 34 % of JNJ-63533054 at Gi2
- G protein activation, G12 (GPR139 (G12 activation); log [compound] M -6.5): 19 % of JNJ-63533054 at Gi2 and 12 % of JNJ-63533054 at Gi2 and 22 % of JNJ-63533054 at Gi2
- G protein activation, G12 (GPR139 (G12 activation); log [compound] M -7.0): 6 % of JNJ-63533054 at Gi2 and 6.57 % of JNJ-63533054 at Gi2 and 15 % of JNJ-63533054 at Gi2
- G protein activation, G12 (GPR139 (G12 activation); log [compound] M -7.5): 3 % of JNJ-63533054 at Gi2 and 4 % of JNJ-63533054 at Gi2 and 9 % of JNJ-63533054 at Gi2
- G protein activation, G12 (GPR139 (G12 activation); log [compound] M -8.0): -4.59 % of JNJ-63533054 at Gi2 and 2 % of JNJ-63533054 at Gi2 and 6 % of JNJ-63533054 at Gi2
